In patent publication US11911356B2, “Regulation of mutant TERT by BRAF V600E/map kinase pathway through FOS/GABP in human cancer” (THE JOHNS HOPKINS UNIVERSITY, priority 2017, dated 2024):

Tested on: FOS phosphorylation
Assay: Western blotting of phosphorylated FOS in K1 and A375 cells
Type: cell-based, human
Conditions: 0.5 uM PLX4032 for 0, 1 and 24 hours
Protocol: FIG. 6A-6J. BRAF V600E promoted FOS binding to GABPB by upregulating FOS phosphorylation. (FIG. 6A) Western blotting analyses for phosphorylated-FOS (p-FOS), total FOS (t-FOS), BRAF, and beta-actin in K1 and A375 cells with or without stable BRAF knockdown. (FIG. 6B) Western blotting analyses of p-FOS, t-FOS, p-ERK, and beta-actin in K1 and A375 cells treated with 0.5 uM PLX4032 for 0, 1, and 24 hours. (FIG. 6C-6E) Effects of FOS phosphorylation on GABPB and TERT activation. (FIG. 6C) KAT18 cells were serum-starved for 24 hours and transiently transfected with FOS wild-type (FOS-wt) or mutant (FOS-mut) bearing none of the potential ERK-targeted phosphorylation sites, followed by Western blotting analysis for TERT, GABPB, p-FOS, t-FOS, and beta-actin. (FIG. 6D) KAT18 cells were transfected with FOS-wt or FOS-mut along with GABPB 5′-UTR luciferase reporter and Renilla luciferase (pRL-TK) plasmids in the absence of serum for 24 hours, and the luciferase activities were then measured. […]
Cells were lysed in the RIPA buffer (#sc-24948; Santa Cruz Biotechnology, Santa Cruz, CA) with protease inhibitor cocktail (#P8340; Sigma-Aldrich) and phosphatase inhibitor cocktail (#P0044; Sigma-Aldrich) and Western blotting analysis was performed as we previously described^54. […] Signals were detected by SuperSignal™ West Pico PLUS Chemiluminescent Substrate (#34579; Thermo Fisher Scientific). […]

## CCCS(=O)(=O)Nc1ccc(F)c(C(=O)c2c[nH]c3ncc(-c4ccc(Cl)cc4)cc23)c1F [PLX4032]
  phosphorylation of FOS: significantly decreased the phosphorylation of FOS
